This is an account of results in US20190031676A1, “ANTIBACTERIAL ANNULATED PYRROLIDIN-2-ONE DERIVATIVES” (priority 2015, published 2019).

Type in all cases: cell-based
One assay has as its system E. coli ATCC25922. As to the kind of experiment: Bacterial growth minimal inhibitory concentration (microdilution, cation-adjusted Mueller-Hinton Broth). The following applies: quinolone-sensitive strain; for MIC: Escherichia coli, ATCC25922. The protocol:
(§1) Minimal Inhibitory Concentrations (MICs; mg/L) were determined in cation-adjusted Mueller-Hinton Broth by a microdilution method following the description given in “Methods for Dilution Antimicrobial Susceptibility Tests for Bacteria that grow Aerobically”, Approved standard, 7th ed., Clinical and Laboratory Standards Institute (CLSI) Document M7-A7, Wayne, Pa., USA (2006).
(§2) All Example compounds were tested against several Gram-positive and Gram-negative bacteria. […] K. pneumoniae A-651 is a multiply-resistant strain (in particular quinolone-resistant), while E. coli ATCC25922 and P. aeruginosa ATCC27853 are quinolone-sensitive strains.
(In general: In broth dilution the organism is exposed to a series of concentrations in liquid medium.)

A further assay has as its system P. aeruginosa ATCC27853. The description is as above. The following applies: quinolone-sensitive strain; for MIC: Pseudomonas aeruginosa, ATCC27853. The protocol: as §1, §2
The subject of another assay is K. pneumoniae A-651. The description is as above. Conditions: multiply-resistant strain (in particular quinolone-resistant); for MIC: Klebsiella pneumoniae, A651. The protocol: as §1, §2
The test system of a further assay is wild-type E. coli A-1261. In words: MIC against wild-type E. coli A-1261 with or without alkaline phosphatase or esterase (prodrug activation). The following applies: Escherichia coli. The method, then:
Minimal Inhibitory Concentrations (MICs; mg/L) were determined in cation-adjusted Mueller-Hinton Broth by a microdilution method following the description given in “Methods for Dilution Antimicrobial Susceptibility Tests for Bacteria that grow Aerobically”, Approved standard, 7th ed., Clinical and Laboratory Standards Institute (CLSI) Document M7-A7, Wayne, Pa., USA (2006). The compounds of Examples 4 and 16 were tested against wild-type E. coli A-1261 in the absence of alkaline phosphatase or esterase, in the presence of an alkaline phosphatase, and in the presence of an esterase. The corresponding antibacterial test results are given in Table 2 hereafter (MICs in mg/L).

Where [1] appears, read: alkaline phosphatase 2 i.U./mL, read-out: MIC for E. coli A-1261 In the presence of an alkaline phosphatase (2 i.U./mL).
The mark [2] stands for this setting: esterase 10 i.U./mL, read-out: MIC for E. coli A-1261 In the presence of an esterase (10 i.U./mL).
Where [3] appears, read: no alkaline phosphatase or esterase, read-out: MIC for E. coli A-1261 In the absence of alkaline phosphatase or esterase.

SMILES strings stand for the structures. ≈ marks a conversion by molar mass, not a printed value. Read-outs that look alike come from different tables or passages of the source.

As for `C[C@@](CCN1Cc2cc(C#CC#C[C@H]3C[C@]3(F)CO)sc2C1=O)(C(=O)NO)S(C)(=O)=O` [Example 4, (2R)-4-(2-(((1R,2R)-2-fluoro-2-(hydroxymethyl)cyclopropyl)buta-1,3-diyn-1-yl)-6-oxo-4,6-dihydro-5H-thieno[2,3-c]pyrrol-5-yl)-N-hydroxy-2-methyl-2-(methylsulfonyl)butanamide], the MIC with E. coli ATCC25922 turned out to be 0.25 µg/mL (≈ 0.534 µM); against P. aeruginosa ATCC27853, 0.5 µg/mL (≈ 1.07 µM); against K. pneumoniae A-651, 0.5 µg/mL (≈ 1.07 µM); in the assay with wild-type E. coli A-1261 (setting [1]), 0.25 µg/mL; with wild-type E. coli A-1261 (setting [2]) it was 0.25 µg/mL; with wild-type E. coli A-1261 (setting [3]), 0.125 µg/mL (≈ 0.267 µM).
As to `C[C@@](CCN1Cc2cc(C#CC#C[C@H]3C[C@]3(F)COP(=O)(O)O)sc2C1=O)(C(=O)NO)S(C)(=O)=O` [Example 16, ((1R,2R)-1-fluoro-2-((5-((3R)-4-(hydroxyamino)-3-methyl-3-(methylsulfonyl)-4-oxobutyl)-6-oxo-5,6-dihydro-4H-thieno[2,3-c]pyrrol-2-yl)buta-1,3-diyn-1-yl)cyclopropyl)methyl dihydrogen phosphate], the results for the MIC in the assay on wild-type E. coli A-1261 (setting [1]), in the assay with wild-type E. coli A-1261 (setting [2]) and in the assay with wild-type E. coli A-1261 (setting [3]) were 0.25 µg/mL, greater than 8 µg/mL and greater than 8 µg/mL, respectively.
With `C[C@@](CCN1Cc2cc(C#CC#CC3(CO)CC3)ccc2C1=O)(C(=O)NO)S(C)(=O)=O` [Example 12, (2R)—N-hydroxy-4-(5-((1-(hydroxymethyl)cyclopropyl)buta-1,3-diyn-1-yl)-1-oxoisoindolin-2-yl)-2-methyl-2-(methylsulfonyl)butanamide], the figures for the MIC in the assay with E. coli ATCC25922, in the assay with P. aeruginosa ATCC27853 and with K. pneumoniae A-651 were 0.031 µg/mL (≈ 0.0697 µM), 2 µg/mL (≈ 4.5 µM) and 0.25 µg/mL (≈ 0.562 µM), respectively.
As to `C[C@@](CCN1Cc2cc(C#CC#CC3CN(C(=O)OCCCO)C3)sc2C1=O)(C(=O)NO)S(C)(=O)=O` [Example 34, 3-hydroxypropyl (2R)-3-((5-(4-(hydroxyamino)-3-methyl-3-(methylsulfonyl)-4-oxobutyl)-6-oxo-5,6-dihydro-4H-thieno[2,3-c]pyrrol-2-yl)buta-1,3-diyn-1-yl)azetidine-1-carboxylate], in the assay with E. coli ATCC25922, the “MIC for E. coli ATCC25922” value amounted to 0.25 µg/mL. Also, in the assay with P. aeruginosa ATCC27853, the “MIC for P. aeruginosa ATCC27853” value worked out at 1 µg/mL. Besides, in the assay with K. pneumoniae A-651, the “MIC for K. Pneumoniae A-651” value came to 0.5 µg/mL.
As to `C[C@@](CCN1Cc2cc(C#Cc3ccccc3)sc2C1=O)(C(=O)NO)S(C)(=O)=O` [Example 42, (2R)—N-hydroxy-2-methyl-2-(methylsulfonyl)-4-(6-oxo-2-(phenylethynyl)-4,6-dihydro-5H-thieno[2,3-c]pyrrol-5-yl)butanamide], the MIC was no more than 0.031 µg/mL against E. coli ATCC25922, 2 µg/mL (≈ 4.62 µM) with P. aeruginosa ATCC27853 and 0.125 µg/mL (≈ 0.289 µM) against K. pneumoniae A-651.
The like results for `CNC1(C#CC#Cc2cc3c(s2)C(=O)N(CC[C@](C)(C(=O)NO)S(C)(=O)=O)C3)CC1` [Example 5, (2R)—N-hydroxy-2-methyl-4-(2-((1-(methylamino)cyclopropyl)buta-1,3-diyn-1-yl)-6-oxo-4,6-dihydro-5H-thieno[2,3-c]pyrrol-5-yl)-2-(methylsulfonyl)butanamide] were, in that order, 0.125 µg/mL (≈ 0.278 µM), 1 µg/mL (≈ 2.22 µM) and 0.25 µg/mL (≈ 0.556 µM).
Take `C[C@@](CCN1Cc2cc(C#CC#CC3(N)CC3)sc2C1=O)(C(=O)NO)S(C)(=O)=O` [Example 3, (2R)-4-(2-((1-aminocyclopropyl)buta-1,3-diyn-1-yl)-6-oxo-4,6-dihydro-5H-thieno[2,3-c]pyrrol-5-yl)-N-hydroxy-2-methyl-2-(methylsulfonyl)butanamide]: the MIC worked out at 0.25 µg/mL (≈ 0.574 µM) with E. coli ATCC25922, 1 µg/mL (≈ 2.3 µM) in the assay on P. aeruginosa ATCC27853 and 0.5 µg/mL (≈ 1.15 µM) against K. pneumoniae A-651.
For `C[C@@](CCN1Cc2cc(C#CC#C[C@@H]3C[C@H]3CO)sc2C1=O)(C(=O)NO)S(C)(=O)=O` (single isomer, unassigned) [Example 1], in that order: 0.125 µg/mL (≈ 0.277 µM), 0.5 µg/mL (≈ 1.11 µM) and 0.25 µg/mL (≈ 0.555 µM).
For `CC(CCN1Cc2cc(C#CC#CC3(CO)CC3)sc2C1=O)(C(=O)NO)S(C)(=O)=O` (racemic) [Reference Example 2, (2RS)—N-hydroxy-4-(2-((1-(hydroxymethyl)cyclopropyl)buta-1,3-diyn-1-yl)-6-oxo-4,6-dihydro-5H-thieno[2,3-c]pyrrol-5-yl)-2-methyl-2-(methylsulfonyl)butanamide], in that order: 1 µg/mL (≈ 2.22 µM), 2 µg/mL (≈ 4.44 µM) and 2 µg/mL (≈ 4.44 µM).
For `C[C@@](CCN1Cc2cc(C#Cc3ccc(CCO)cc3)ccc2C1=O)(C(=O)NO)S(C)(=O)=O` [Example 33, (2R)—N-hydroxy-4-(5-((4-(2-hydroxyethyl)phenyl)ethynyl)-1-oxoisoindolin-2-yl)-2-methyl-2-(methylsulfonyl)butanamide], in that order: 0.125 µg/mL (≈ 0.266 µM), 2 µg/mL (≈ 4.25 µM) and 0.5 µg/mL (≈ 1.06 µM).
With `CN1C[C@@H](C#CC#Cc2cc3c(s2)C(=O)N(CC[C@](C)(C(=O)NO)S(C)(=O)=O)C3)C[C@@H]1CO` [Example 36, (2R)—N-hydroxy-4-(2-(((3R,5R)-5-(hydroxymethyl)-1-methylpyrrolidin-3-yl)buta-1,3-diyn-1-yl)-6-oxo-4,6-dihydro-5H-thieno[2,3-c]pyrrol-5-yl)-2-methyl-2-(methylsulfonyl)butanamide], the MIC in the assay with E. coli ATCC25922 came out at 0.5 µg/mL (≈ 1.01 µM); in the assay with P. aeruginosa ATCC27853 it was 1 µg/mL (≈ 2.03 µM); against K. pneumoniae A-651, 1 µg/mL (≈ 2.03 µM).
With `CN(C)CC(=O)OC[C@H]1C[C@@H]1C#CC#Cc1cc2c(s1)C(=O)N(CC[C@](C)(C(=O)NO)S(C)(=O)=O)C2` [Example 20, ((1S,2S)-2-((5-((3R)-4-(hydroxyamino)-3-methyl-3-(methylsulfonyl)-4-oxobutyl)-6-oxo-5,6-dihydro-4H-thieno[2,3-c]pyrrol-2-yl)buta-1,3-diyn-1-yl)cyclopropyl)methyl dimethylglycinate], the MIC was found to be 0.125 µg/mL (≈ 0.233 µM) in the assay with E. coli ATCC25922, 1 µg/mL (≈ 1.87 µM) against P. aeruginosa ATCC27853 and 0.25 µg/mL (≈ 0.467 µM) against K. pneumoniae A-651.
The like results for `C[C@@](CCN1Cc2cc(C#CC#CC3(N)CC3)ccc2C1=O)(C(=O)NO)S(C)(=O)=O` [Example 13, (2R)-4-(5-((1-aminocyclopropyl)buta-1,3-diyn-1-yl)-1-oxoisoindolin-2-yl)-N-hydroxy-2-methyl-2-(methylsulfonyl)butanamide] were, in that order, 0.5 µg/mL (≈ 1.16 µM), 1 µg/mL (≈ 2.33 µM) and 1 µg/mL (≈ 2.33 µM).
